Experimental data taken from patent US6762189B1, “5-pyrimidinecarboxamide derivatives and the pharmaceutical compositions containing said derivatives” (Dong Wha Pharm. Ind. Co., Ltd., priority 1999, dated 2004).

How the values were obtained:
HBV polymerase = molecular target: T1, HBV polymerase (Hepatitis B virus genotype A2 subtype adw2, UniProt P03159); test: In vitro reverse transcription activity of HBV polymerase (ELISA-type, DIG/biotin nucleotides); format: biochemical; conditions: read-out: Inhibition activity on HBV-RT (%); for inhibition at 0.01 µg/mL: 0.01 μg/ml test compound; for inhibition at 0.1 µg/mL: 0.1 μg/ml test compound; for inhibition at 1 µg/mL: 1 μg/ml test compound
T1 construct: made in house; host or cells: E. coli
Description: The following in vitro experiment was performed to determine the effect of the compounds of formula 1 on the activity of HBV polymerase during reverse transcription.
The present inventors submitted application for a patent concerning HBV polymerase genetically expressed in and separated from E. coli, the process of its preparation, and the method to measure the enzyme activities (KR 94-3918, KR 96-33998). In the present experiments HBV polymerase was used which had been expressed in E. coli as stated above.
The method used in the present invention to measure in vitro reverse transcribing activities of HBV polymerase is as follows. Basic principles are the same as for ELISA. Nucleotides with biotin or digoxigenin group attached are included as substrates and anti-DIG antibodies attached to peroxidase enzyme recognize the polymerized substrates.
To the wells coated with streptavidin, 20 μl of HBV polymerase, 20 μl of reaction mixture (10 μM each of DIG-UTP and Biotin-UTP, 46 mM Tris-HCl, 266 mM KCl, 27.5 mM MgCl2, 9.2 mM DTT substrate/primer hybrid), and 20 μl of test compound (added to 1, 0.1, and 0.01 μg/ml) were added and allowed to react a 22° C. for 15 hrs. During this reaction, HBV polymerase catalyzes DNA synthesis and digoxigenin and biotin attached to nucleotides form bonds with streptavidin coated on the bottom of wells. When the reaction was done, each well was washed with 250μl of cleaning buffer (pH 7.0) for 30 seconds, which was repeated five times to remove remaining impurities. 200 μl of anti-DIG-POD antibody was added to each well and allowed to react for 1 hr at 37° C., and the wells were washed with cleaning buffer to remove impurities. 200μl each of ABTS™, a substrate of peroxidase, was then added and allowed to react at room temperature for 30 min. Absorbance was measured at 405 nm using ELISA reader.
The percentage of reduction in HBV polymerase activities for reverse transcription was calculated using the group without test compound as a control and the results are shown in Table 3.

HBV = test: Inhibition of HBV proliferation in HBV producing cell line HepG 2.2.15 (competitive PCR of culture supernatant); format: cell-based, Hepatitis B virus; conditions: Hepatitis B virus, HepG2.2.15, 168 h, HepG 2.2.15, one week, read-out: Inhibitory effect on the HBV proliferation, Inhibition activity on HBV-RT (%); for inhibition at 0.01 µg/mL: 0.01 μg/ml; for inhibition at 0.1 µg/mL: 0.1 μg/ml; for inhibition at 1 µg/mL: 1 μg/ml
Description: The following experiment was performed to determine inhibitory effects of compounds of formula on the proliferation of HBV producing cell line.
To test for antiviral effect, replication and proliferation of HBV were measured in HepG 2.2.15, a human liver cancer cell line.
The cell concentration was adjusted to 1×10^5 cells/ml and 1 ml was added to each well of a 24-well cell culture plate, which was then kept in a culture box for 3-4 days at 37° C. under 5% CO2 until cells grew sufficiently, changing culture medium everyday. When the cells matured sufficiently, the test compounds were added to the final concentrations of 0.01, 0.1, and 1 μg/ml. One week after the addition of test compounds, he culture solution was centrifuged at 5,000 rpm for 10 min. 25 μl of supernatant was transferred to a new tube and 5 μl of lysis solution [0.54N NaOH, 0.06% NP40] was added to each tube. After keeping the tube at 37° C. for 1 hr, 30 μl . of neutralizing solution [0.09NHCl, 0.1MTris-HCl, pH7.4] was added as a reaction solution for competitive polymerase chain reaction (PCR).
PCR was performed using genetic sequence of HBV core protein as a matrix. PCR reaction was carried out by adding 1 unit of Taq polymerase enzyme to 25 pmol of each primer, 250 μM dNTP, 5 μl of PCR reaction solution [0.54N NaOH, 0.06% NP40, 0.09N HCl, 0.1M Tris-HCl, pH 7.4].
DNA polymerized by PCR was electrophoresed on Agarose gel and quantitatively analyzed using an image analyzer (Gel Dcc 1000, Bio-Rad) in order to evaluate the effect of compounds of the present invention on the reduction of HBV proliferation.
3TC (lamivudine) was used as a positive control at the same concentrations as those of the test compounds. The percentage of reduction in HBV proliferation was calculated using the group without test compound as a control and the results are represented in Table 4.

T1 sequence (P03159 whole entry): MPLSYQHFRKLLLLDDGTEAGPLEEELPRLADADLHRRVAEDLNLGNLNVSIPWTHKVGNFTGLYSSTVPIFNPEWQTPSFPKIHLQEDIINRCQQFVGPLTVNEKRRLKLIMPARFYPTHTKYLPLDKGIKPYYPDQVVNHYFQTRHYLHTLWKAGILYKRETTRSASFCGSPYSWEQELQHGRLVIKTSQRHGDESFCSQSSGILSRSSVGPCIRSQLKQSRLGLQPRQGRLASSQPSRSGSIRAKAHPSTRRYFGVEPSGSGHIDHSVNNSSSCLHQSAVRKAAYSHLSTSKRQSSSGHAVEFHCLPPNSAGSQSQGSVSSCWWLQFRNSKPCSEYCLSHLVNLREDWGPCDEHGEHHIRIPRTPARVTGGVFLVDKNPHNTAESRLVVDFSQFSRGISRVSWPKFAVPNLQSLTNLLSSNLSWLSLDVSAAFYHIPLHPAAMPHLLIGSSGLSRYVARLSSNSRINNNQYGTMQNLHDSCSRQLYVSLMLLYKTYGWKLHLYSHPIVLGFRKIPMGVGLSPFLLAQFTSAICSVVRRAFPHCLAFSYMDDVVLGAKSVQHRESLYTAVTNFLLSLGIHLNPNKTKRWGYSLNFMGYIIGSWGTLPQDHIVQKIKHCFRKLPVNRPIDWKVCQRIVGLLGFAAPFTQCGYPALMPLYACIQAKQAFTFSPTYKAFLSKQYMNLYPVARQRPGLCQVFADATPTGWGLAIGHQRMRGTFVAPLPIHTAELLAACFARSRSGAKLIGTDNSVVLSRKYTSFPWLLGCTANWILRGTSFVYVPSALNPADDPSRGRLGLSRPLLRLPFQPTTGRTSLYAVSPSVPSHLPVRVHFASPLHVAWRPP

SMILES | inhibition at 0.01 µg/mL (HBV polymerase) | inhibition at 0.1 µg/mL (HBV polymerase) | inhibition at 1 µg/mL (HBV polymerase) | melting point | inhibition at 0.01 µg/mL (HBV) | inhibition at 0.1 µg/mL (HBV) | inhibition at 1 µg/mL (HBV)
CSc1ncc(C(=O)N2CCN(CCO)CC2)c(Nc2ccc3cn[nH]c3c2)n1 [Example 34, 5-[[4-(2-hydroxyethyl)-1-piperazinyl]carbonyl]-4-(1H-6-indazolylamino)-2-methylthiopyrimidine] | 15% | 43% | 59% | 114 to 117 °C | – | – | –
CSc1ncc(C(=O)NN2CCN(C)CC2)c(Nc2ccc3cn[nH]c3c2)n1 [Example 22, 4-(1H-6-indazolylamino)-N-(4-methyl-1-piperazinyl)2-methylthio-5-pyrimidinecarboxamide] | 28% | 46% | 72% | 244 to 247 °C | – | – | –
CSc1ncc(C(=O)N2CCN(C)CC2)c(Nc2ccc3[nH]ncc3c2)n1 [Example 31, 4-(1H-5-indazolylamino)-5-[(4-methyl-1-piperazinyl)-carbonyl]-2-methylthiopyrimidine] | 43% | 58% | 82% | 153 to 155 °C | – | – | –
CSc1ncc(C(=O)N2CCN(C)CC2)c(Nc2ccc3cn[nH]c3c2)n1 [Example 32, 4-(1H-6-indazolylamino)-5-[(4-methyl-1-piperazinyl)-carbonyl]-2-methylthiopyrimidine] | 26% | 40% | 62% | 102 to 106 °C | – | – | –
CSc1ncc(C(=O)N(C)C)c(Nc2ccc3[nH]ncc3c2)n1 [Example 15, N,N-dimethyl-4-(1H-5-indazolylamino)-2-methylthio-5-pyrimidinecarboxamide] | 42% | 61% | 77% | 101 to 105 °C | 25% | 52% | 70%
CSc1ncc(C(=O)NCc2cccnc2)c(Nc2ccc3cn[nH]c3c2)n1 [Example 26, 4-(1H-6-indazolylamino)-2-methylthio-N-(3-pyridyl)methyl-5-pyrimidinecarboxamide] | 55% | 79% | 98% | 253 to 256 °C | 47% | 75% | 97%
CSc1ncc(C(=O)NCCc2ccccn2)c(Nc2ccc3[nH]ncc3c2)n1 [Example 27, 4-(1H-5-indazolylamino)-2-methylthio-N-[2-(2-pyridyl)ethyl]-5-pyrimidinecarboxamide] | 48% | 60% | 88% | 220 to 223 °C | 38% | 55% | 84%
CSc1ncc(C(=O)NCCc2ccccn2)c(Nc2ccc3cn[nH]c3c2)n1 [Example 28, 4-(1H-6-indazolylamino)-2-methylthio-N-[2-(2-pyridyl)ethyl]-5-pyrimidinecarboxamide] | 52% | 70% | 95% | 230 to 231 °C | 44% | 68% | 93%
CSc1ncc(C(=O)N2CCN(CCO)CC2)c(Nc2ccc3[nH]ncc3c2)n1 [Example 33, 5-[[4-(2-hydroxyethyl)-1-piperazinyl]carbonyl]-4-(1H-5-indazolylamino)-2-methylthiopyrimidine] | 11% | 32% | 53% | 166 to 170 °C | – | – | –
CSc1ncc(C(=O)NCc2cccnc2)c(Nc2ccc3[nH]ncc3c2)n1 [Example 25, 4-(1H-5-indazolylamino)-2-methylthio-N-(3-pyridyl)methyl-5-pyrimidinecarboxamide] | 53% | 76% | 97% | 268 to 270 °C | 40% | 65% | 92%

Further lines, with some results ahead:

inhibition at 0.01 µg/mL (HBV polymerase) | inhibition at 0.1 µg/mL (HBV polymerase) | inhibition at 1 µg/mL (HBV polymerase) | melting point | SMILES | inhibition at 0.01 µg/mL (HBV) | inhibition at 0.1 µg/mL (HBV) | inhibition at 1 µg/mL (HBV)
40% | 54% | 78% | 251 to 253 °C | CSc1ncc(C(=O)NN2CCN(C)CC2)c(Nc2ccc3[nH]ncc3c2)n1 [Example 21, 4-(1H-5-indazolylamino)-N-(4-methyl-1-piperazinyl)-2-methylthio-5-pyrimidinecarboxamide] | – | – | –
15% | 51% | 80% | 111 to 114 °C | CSc1ncc(C(=O)NCCN(C)C)c(Nc2ccc3[nH]ncc3c2)n1 [Example 17, N-[2-(dimethylamino)ethyl]-4-(1H-5-indazolylamino)-2-methylthio-5-pyrimidinecarboxamide] | – | – | –
25% | 42% | 60% | 225 to 228 °C | COCCNC(=O)c1cnc(SC)nc1Nc1ccc2cn[nH]c2c1 [Example 14, 4-(1H-6-indazolylamino)-N-(2-methoxyethyl)-2-methylthio-5-pyrimidinecarboxamide] | – | – | –
18% | 40% | 51% | 227 to 232 °C | COC(=O)[C@@H](NC(=O)c1cnc(SC)nc1Nc1ccc2[nH]ncc2c1)[C@@H](C)O [Example 23, 4-(1H-5-indazolylamino)-N-[(1S)-1-(methoxycarbonyl)-(2R)-2-hydroxypropyl]-2-methylthio-5-pyrimidinecarboxamide] | – | – | –
50% | 63% | 82% | 226 to 228 °C | COC(=O)[C@@H](NC(=O)c1cnc(SC)nc1Nc1ccc2cn[nH]c2c1)[C@@H](C)O [Example 24, 4-(1H-6-indazolylamino)-N-[(1S)-1-(methoxycarbonyl)-(2R)-2-hydroxypropyl]-2-methylthio-5-pyrimidinecarboxamide] | – | – | –
